For 14 compounds, ring closure, isolated yield results are on record in patent US20260159539.

Read-outs that look alike come from different tables or passages of the source.

The compound `CCn1c(-c2cc(Oc3cccnc3)cnc2[C@H](C)OC)c2c3cc(ccc31)-c1cc(cc(O[Si](C(C)C)(C(C)C)C(C)C)c1)C[C@H](NC(=O)OC(C)(C)C)C(=O)N1CCC[C@H](N1)C(=O)OCC(C)(C)C2` displayed a ring closure, isolated yield (from CCn1c(-c2cc(Oc3cccnc3)cnc2[C@H](C)OC)c(CC(C)(C)CO)c2cc(-c3cc(C[C@H](NC(=O)OC(C)(C)C)C(=O)N4CCC[C@@H](C(=O)O)N4)cc(O[Si](C(C)C)(C(C)C)C(C)C)c3)ccc21, ester bond, 18-membered ring, EDCI/HOBt/DIPEA, DCM, 9.9 mM, 25.0 °C, 12.0 h, 4 steps) of 67%.
Take `CCn1c(-c2cc(N3CCN(C4CC4)CC3)cnc2[C@H](C)OC)c(CC(C)(C)CO)c2cc(-c3cc4cc(c3)C[C@@H](C(=O)OC)NC(=O)[C@H](C(C)C)N(C)C(=O)[C@H]3CCCN(C(C)=O)N3CC4)ccc21`: where the note is “from CCn1c(-c2cc(N3CCN(C4CC4)CC3)cnc2[C@H](C)OC)c(CC(C)(C)CO)c2cc(-c3cc(CCN4[C@@H](C(=O)O)CCCN4C(C)=O)cc(C[C@H](NC(=O)[C@@H](NC)C(C)C)C(=O)OC)c3)ccc21, amide bond, 14-membered ring, COMU/DIPEA, DMF, 54.0 mM, 25.0 °C, 1.0 h, 2 steps”, the ring closure, isolated yield is 42%.
Consider `CCn1c(-c2cc(N3CCN(C(=O)OCc4ccccc4)CC3)cnc2[C@H](C)OC)c2c3nc(ccc31)-c1cc(cc(O[Si](C(C)C)(C(C)C)C(C)C)c1)C[C@H](NC(=O)OC(C)(C)C)C(=O)N1CCC[C@H](N1)C(=O)OCC(C)(C)C2`, for which the ring closure, isolated yield (from CCn1c(-c2cc(N3CCN(C(=O)OCc4ccccc4)CC3)cnc2[C@H](C)OC)c(CC(C)(C)CO)c2nc(-c3cc(C[C@H](NC(=O)OC(C)(C)C)C(=O)N4CCC[C@@H](C(=O)O)N4)cc(O[Si](C(C)C)(C(C)C)C(C)C)c3)ccc21, ester bond, 18-membered ring, EDCI/HOBt/DIEA, DCM, 32.0 mM, 25.0 °C, 16.0 h, 2 steps) turned out to be 42%.
`CCn1c(-c2cc(N3CCN(C(=O)OCc4ccccc4)CC3)cnc2[C@H](C)OC)c2c3cc(ccc31)-c1cc(cc(O[Si](C(C)C)(C(C)C)C(C)C)c1)C[C@H](NC(=O)OC(C)(C)C)C(=O)N1CCC[C@H](N1)C(=O)OCC(F)(F)C2`: the ring closure, isolated yield (from CCn1c(-c2cc(N3CCN(C(=O)OCc4ccccc4)CC3)cnc2[C@H](C)OC)c(CC(F)(F)CO)c2cc(-c3cc(C[C@H](NC(=O)OC(C)(C)C)C(=O)N4CCC[C@@H](C(=O)O)N4)cc(O[Si](C(C)C)(C(C)C)C(C)C)c3)ccc21, ester bond, 18-membered ring, EDCI/HOBt/DIEA, DCM, 32.0 mM, 25.0 °C, 16.0 h, 2 steps) amounted to 75%.
Regarding `CCc1c(-c2cc(N3CCN(C(=O)OCc4ccccc4)CC3)cnc2[C@H](C)OC)n2c3cc(ccc13)-c1cc(cc(O[Si](C(C)C)(C(C)C)C(C)C)c1)C[C@H](NC(=O)OC(C)(C)C)C(=O)N1CCC[C@H](N1)C(=O)OCC(C)(C)C2`, the ring closure, isolated yield (from CCc1c(-c2cc(N3CCN(C(=O)OCc4ccccc4)CC3)cnc2[C@H](C)OC)n(CC(C)(C)CO)c2cc(-c3cc(C[C@H](NC(=O)OC(C)(C)C)C(=O)N4CCC[C@@H](C(=O)O)N4)cc(O[Si](C(C)C)(C(C)C)C(C)C)c3)ccc12, ester bond, 18-membered ring, EDCI/HOBt/DIEA, DCM, 8.8 mM, 25.0 °C, 16.0 h, 2 steps) is 48%.
`CCn1c(-c2cc(N3CCN(C(=O)OCc4ccccc4)CC3)cnc2[C@H](C)OC)c2c3cc(ccc31)-c1cc(cc(O[Si](C(C)C)(C(C)C)C(C)C)c1)C[C@H](NC(=O)OC(C)(C)C)C(=O)N1CCC[C@H](N1)C(=O)OCC(C)(C)C2` came in with a ring closure, isolated yield (from CCn1c(-c2cc(N3CCN(C(=O)OCc4ccccc4)CC3)cnc2[C@H](C)OC)c(CC(C)(C)CO)c2cc(-c3cc(C[C@H](NC(=O)OC(C)(C)C)C(=O)N4CCC[C@@H](C(=O)O)N4)cc(O[Si](C(C)C)(C(C)C)C(C)C)c3)ccc21, ester bond, 18-membered ring, EDCI/HOBt/DIEA, DCM, 9.3 mM, 25.0 °C, 16.0 h) of 63%.
Regarding `COC(=O)[C@@H]1Cc2cc(Cl)cc(c2)CCN2[C@H](CC[C@H]2C(=O)N(C)C)C(=O)N(C)[C@@H](C(C)C)C(=O)N1`, the ring closure, isolated yield (from COC(=O)[C@@H](N)Cc1cc(Br)cc(CCN2[C@@H](C(=O)N(C)[C@H](C(=O)O)C(C)C)CC[C@H]2C(=O)N(C)C)c1, amide bond, 14-membered ring, HATU/DIEA, DMF, 17.1 mM, 25.0 °C, 1.0 h, 2 steps) worked out at 44%.
Compound “tert-butyl (3aS,6S,9S,15S,32aS)-6-isopropyl-21-(2-((S)-1-methoxyethyl)-5-(4-(oxetan-3-yl)piperazin-1-yl)pyridin-3-yl)-5,19,19-trimethyl-4,7,10,16-tetraoxo-22-(2,2,2-trifluoroethyl)-2,3,3a,4,5,6,7,8,9,10,13,14,15,16,18,19,20,22,32,32a-icosahydro-1H,12H-11,15-epimino-23,25-etheno-9,28-methano-26,30-(metheno)dipyrrolo[2,3-c:3′,4′-v][1,18]dioxa[6,9,12]triazacyclotriacontine-1-carboxylate” had a ring closure, isolated yield (ether bond, 14-membered ring) of 76%.
For the compound `CCOC(=O)[C@@H]1Cc2nc(Br)sc2C=C[C@@H]2[C@H](CCN2C(=O)OC(C)(C)C)C(=O)N(C)[C@@H](C(C)C)C(=O)N1`, the ring closure, isolated yield (from C=Cc1sc(Br)nc1C[C@H](NC(=O)[C@H](C(C)C)N(C)C(=O)[C@H]1CCN(C(=O)OC(C)(C)C)[C@@H]1C=C)C(=O)OCC, rcm bond, 13-membered ring, Grubbs G2/Ti(OiPr)4, DCM, 28.3 mM, 45.0 °C, 16.0 h) was 20%.
`CCOC(=O)[C@@H]1Cc2nc(Br)nn2/C=C/[C@@H]2[C@H](CCN2C(=O)OC(C)(C)C)C(=O)N(C)[C@@H](C(C)C)C(=O)N1`: the ring closure, isolated yield (from C=C[C@@H]1[C@@H](C(=O)N(C)[C@H](C(=O)N[C@@H](Cc2nc(Br)nn2C=C)C(=O)OCC)C(C)C)CCN1C(=O)OC(C)(C)C, rcm bond, 13-membered ring, Grubbs G2/Ti(OiPr)4, DCM, 15.3 mM, 45.0 °C, 12.0 h) was determined as 27%.
Regarding `COC(=O)[C@@H]1Cc2cc(I)cc(c2)OC[C@@H]2[C@H](CCN2C(=O)OC(C)(C)C)C(=O)N(C)[C@@H](C(C)C)C(=O)N1`, for the setting “from COC(=O)[C@H](Cc1cc(O)cc(I)c1)NC(=O)[C@H](C(C)C)N(C)C(=O)[C@H]1CCN(C(=O)OC(C)(C)C)[C@@H]1COS(=O)(=O)c1ccc(C)cc1, ether bond, 14-membered ring, K2CO3/KI, DMF, 12.2 mM, 80.0 °C, 2.0 h”, the ring closure, isolated yield came out at 66%.
In turn, `CO[C@@H](C)c1ncc(C2CCN(C(=O)OCc3ccccc3)CC2)cc1-c1c2c3cc(ccc3n1CC(F)(F)F)-c1cc(cc(O[Si](C(C)C)(C(C)C)C(C)C)c1)C[C@H](NC(=O)OC(C)(C)C)C(=O)N1CCC[C@H](N1)C(=O)OCC(C)(C)C2` registered a ring closure, isolated yield (from CO[C@@H](C)c1ncc(C2CCN(C(=O)OCc3ccccc3)CC2)cc1-c1c(CC(C)(C)CO)c2cc(-c3cc(C[C@H](NC(=O)OC(C)(C)C)C(=O)N4CCC[C@@H](C(=O)O)N4)cc(O[Si](C(C)C)(C(C)C)C(C)C)c3)ccc2n1CC(F)(F)F, ester bond, 18-membered ring, EDCI/HOBt/DIEA, DCM, 8.4 mM, 25.0 °C, 16.0 h, 3 steps) of 42%.
For the compound `CCn1c(-c2cc(OCc3ccccc3)cnc2[C@H](C)OC)c2c3cc(ccc31)-c1cc(cc(O[Si](C(C)C)(C(C)C)C(C)C)c1)C[C@H](NC(=O)OC(C)(C)C)C(=O)N1CCC[C@H](N1)C(=O)OCC(C)(C)C2`, the ring closure, isolated yield (from CCn1c(-c2cc(OCc3ccccc3)cnc2[C@H](C)OC)c(CC(C)(C)CO)c2cc(-c3cc(C[C@H](NC(=O)OC(C)(C)C)C(=O)N4CCC[C@@H](C(=O)O)N4)cc(O[Si](C(C)C)(C(C)C)C(C)C)c3)ccc21, ester bond, 18-membered ring, EDCI/HOBt/DIPEA, DCM, 9.8 mM, 25.0 °C, 16.0 h, 4 steps) was 67%.
For the setting “from COC(=O)[C@@H](N)Cc1cc(Br)cc(CC[C@@H]2[C@@H](C(=O)N(C)[C@H](C(=O)O)C(C)C)CCN2C(=O)OC(C)(C)C)c1, amide bond, 14-membered ring, HATU/DIEA, DMF, 16.0 mM, 25.0 °C, 1.0 h, 2 steps”, `COC(=O)[C@@H]1Cc2cc(Br)cc(c2)CC[C@@H]2[C@H](CCN2C(=O)OC(C)(C)C)C(=O)N(C)[C@@H](C(C)C)C(=O)N1` returned a ring closure, isolated yield of 34%.
